Experimental data taken from patent publication US7932262B2 (Novartis AG, priority 2006, dated 2011).

Assays:
PDK1 kinase = biological target: T1, PDK1 kinase (Homo sapiens, UniProt O15530); experiment: PDK1 Kinase Alpha Screen Assay; format: biochemical; conditions: PDK1 Kinase Alpha Screen Assay; read-out: PDK1 IC50
T1 sequence (O15530 1-556): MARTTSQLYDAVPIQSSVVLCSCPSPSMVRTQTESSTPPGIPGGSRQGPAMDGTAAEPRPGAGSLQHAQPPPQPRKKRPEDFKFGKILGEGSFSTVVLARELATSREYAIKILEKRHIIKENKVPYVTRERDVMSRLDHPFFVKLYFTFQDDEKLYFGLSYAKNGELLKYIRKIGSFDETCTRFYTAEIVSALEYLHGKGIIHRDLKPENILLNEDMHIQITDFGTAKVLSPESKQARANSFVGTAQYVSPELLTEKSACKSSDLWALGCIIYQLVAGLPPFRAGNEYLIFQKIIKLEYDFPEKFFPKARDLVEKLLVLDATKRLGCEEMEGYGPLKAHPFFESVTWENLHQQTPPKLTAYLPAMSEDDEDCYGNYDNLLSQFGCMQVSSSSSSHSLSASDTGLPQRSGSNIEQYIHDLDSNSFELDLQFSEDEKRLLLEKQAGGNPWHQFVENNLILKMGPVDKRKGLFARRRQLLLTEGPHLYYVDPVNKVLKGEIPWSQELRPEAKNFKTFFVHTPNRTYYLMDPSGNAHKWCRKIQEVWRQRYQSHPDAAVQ
Outline: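 AlphaScreen readout: phospho-peptide captured by phospho-(Ser/Thr) PKA substrate antibody (0.3 mg/ml) on protein A acceptor beads, biotin peptide on streptavidin donor beads (25 μg/ml each), overnight at room temperature. Kinase step used 50 nM PDK1-4 peptide, 10 uM ATP, 3-18 hours.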

PC-3 cells = experiment: Cell Proliferation Assay (Cell Titer Glo), PC-3 cell line; format: cell-based; conditions: Homo sapiens, PC-3, Cell Proliferation Assay, PC3; read-out: CPEC50 PC3
Outline: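 Cell Titer Glo luminescence, read after fresh medium replaced the dosing medium, gave viability of PC-3 cells plated at 1000 cells/well. Compounds, 1:3 serially diluted in DMSO at 500× and then in medium, were added after 3-5 h adhesion and incubated 3 days at 37° C.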

| Compound | IC50 (PDK1 kinase) [µM] | EC50 (PC-3 cells) [µM] |
| --- | --- | --- |
| COc1ccc(NC(C)=O)cc1Nc1ncc2cccc(OC3CCNCC3)c2n1 [Compound 547, N-(4-methoxy-3-(8-(piperidin-4-yloxy)quinazolin-2-ylamino)phenyl)acetamide] | 5 to 10 | 5 to 10 |
| CC(C)N1CCC(Oc2cccc3cnc(N4CCN(c5ccc(N)cc5)CC4)nc23)CC1 [Compound 552, 4-(4-(8-(1-isopropylpiperidin-4-yloxy)quinazolin-2-yl)piperazin-1-yl)aniline] | 10 to 25 | 5 to 10 |
| COc1cc(Nc2ncc3ccc(OC4CCN(C(C)C)CC4)cc3n2)cc(OC)c1 [Compound 565, N-(3,5-dimethoxyphenyl)-7-(1-isopropylpiperidin-4-yloxy)quinazolin-2-amine] | 5 to 10 | 5 to 10 |
| CS(=O)(=O)c1cccc(Nc2ncc3ccc(OC4CCNCC4)cc3n2)c1 [Compound 570, N-(3-(methylsulfonyl)phenyl)-7-(piperidin-4-yloxy)quinazolin-2-amine] | < 5 | < 5 |
| COc1cccc(Nc2ncc3ccc(OC4CCNCC4)cc3n2)c1 [Compound 571, N-(3-methoxyphenyl)-7-(piperidin-4-yloxy)quinazolin-2-amine] | < 5 | < 5 |
| c1cc(Nc2ncc3ccc(OC4CCNCC4)cc3n2)cc(N2CCOCC2)c1 [Compound 572, N-(3-morpholinophenyl)-7-(piperidin-4-yloxy)quinazolin-2-amine] | < 5 | < 5 |
| CC(C)N1CCC(Oc2ccc3cnc(Nc4cccc(F)c4)nc3c2)CC1 [Compound 573, N-(3-fluorophenyl)-7-(1-isopropylpiperidin-4-yloxy)quinazolin-2-amine] | < 5 | 5 to 10 |
| CC(C)N1CCC(Oc2ccc3cnc(Nc4cc(F)cc(F)c4)nc3c2)CC1 [Compound 574, N-(3,5-difluorophenyl)-7-(1-isopropylpiperidin-4-yloxy)quinazolin-2-amine] | < 5 | < 5 |
| CC(C)N1CCC(Oc2ccc3cnc(Nc4cccc(C(F)(F)F)c4)nc3c2)CC1 [Compound 575, 7-(1-isopropylpiperidin-4-yloxy)-N-(3-(trifluoromethyl)phenyl)quinazolin-2-amine] | < 5 | < 5 |
| COc1cccc(Nc2ncc3ccc(OC4CCN(C(C)C)CC4)cc3n2)c1 [Compound 576, 7-(1-isopropylpiperidin-4-yloxy)-N-(3-methoxyphenyl)quinazolin-2-amine] | < 5 | 5 to 10 |
| CC(C)N1CCC(Oc2ccc3cnc(Nc4ccc5nn[nH]c5c4)nc3c2)CC1 [Compound 577, N-(1H-benzo[d][1,2,3]triazol-6-yl)-7-(1-isopropylpiperidin-4-yloxy)quinazolin-2-amine] | < 5 | 5 to 10 |
| CC(C)N1CCC(Oc2ccc3cnc(Nc4cccc(N5CCCC5)c4)nc3c2)CC1 [Compound 579, 7-(1-isopropylpiperidin-4-yloxy)-N-(3-(pyrrolidin-1-yl)phenyl)quinazolin-2-amine] | < 5 | 5 to 10 |
| CC(C)N1CCC(Oc2ccc3cnc(Nc4cccc(N5CCOCC5)c4)nc3c2)CC1 [Compound 580, 7-(1-isopropylpiperidin-4-yloxy)-N-(3-morpholinophenyl)quinazolin-2-amine] | 5 to 10 | 5 to 10 |
| CN1CCN(c2cccc(Nc3ncc4ccc(OC5CCNCC5)cc4n3)c2)CC1 [Compound 581, N-(3-(4-methylpiperazin-1-yl)phenyl)-7-(piperidin-4-yloxy)quinazolin-2-amine] | < 5 | < 5 |
| CC(C)N1CCC(Oc2ccc3cnc(Nc4cccc(N5CCN(C)CC5)c4)nc3c2)CC1 [Compound 582, 7-(1-isopropylpiperidin-4-yloxy)-N-(3-(4-methylpiperazin-1-yl)phenyl)quinazolin-2-amine] | < 5 | 5 to 10 |
| Cc1nc(Nc2ccc(S(N)(=O)=O)cc2)nc2cc(OCCC3CCNCC3)ccc12 [Compound 583] | 10 to 25 | 5 to 10 |
| c1ncc(-c2ccc(Nc3ncc4ccc(OC5CCNCC5)cc4n3)cc2)o1 [Compound 584, N-(4-(oxazol-5-yl)phenyl)-7-(piperidin-4-yloxy)qinazolin-2-amine] | < 5 | < 5 |
| O=C(c1ccc(Nc2ncc3ccc(OC4CCNCC4)cc3n2)cc1)N1CCOCC1 [Compound 585, morpholilno(4-(7-(piperidin-4-yloxy)quinazolin-2-ylamino)phenyl)methanone] | < 5 | < 5 |

Next, values leading:

| IC50 (PDK1 kinase) [µM] | EC50 (PC-3 cells) [µM] | Compound |
| --- | --- | --- |
| < 5 | 5 to 10 | COc1ccc(Nc2ncc3cccc(OC4CCN(C(C)C)CC4)c3n2)cc1 [Compound 535, 8-(1-isopropylpiperidin-4-yloxy)-N-(4-methoxyphenyl)quinazolin-2-amine] |
| < 5 | < 5 | CC(C)N1CCC(Oc2cccc3cnc(Nc4ccc(C#N)cc4)nc23)CC1 [Compound 536, 4-(8-(1-isopropylpiperidin-4-yloxy)quinazolin-2-ylamino)benzonitrile] |
| < 5 | 5 to 10 | CC(C)N1CCC(Oc2cccc3cnc(Nc4ccc(C(=O)N5CCOCC5)cc4)nc23)CC1 [Compound 537, (4-(8-(1-isopropylpiperidin-4-yloxy)quinazolin-2-ylamino)phenyl)(morpholino)methanone] |
| < 5 | < 5 | O=C(c1ccc(Nc2ncc3cccc(OC4CCNCC4)c3n2)cc1)N1CCOCC1 [Compound 538, morpholino(4-(8-(piperidin-4-yloxy)quinazolin-2-ylamino)phenyl)methanone] |
| < 5 | < 5 | CC(=O)N1CCC(Oc2cccc3cnc(Nc4ccc(S(N)(=O)=O)cc4)nc23)CC1 [Compound 539, 4-(8-(1-acetylpiperidin-4-yloxy)quinazolin-2-ylamino)benzenesulfonamide] |
| < 5 | < 5 | CS(=O)(=O)N1CCC(Oc2cccc3cnc(Nc4ccc(S(N)(=O)=O)cc4)nc23)CC1 [Compound 540, 4-(8-(1-(methylsulfonyl)piperidin-4-yloxy)quinazolin-2-ylamino)benzenesulfonamide] |
| < 5 | < 5 | c1cc(Nc2ncc3cccc(OC4CCNCC4)c3n2)cc(N2CCOCC2)c1 [Compound 545, N-(3-morpholinophenyl)-8-(piperidin-4-yloxy)quinazolin-2-amine] |
| < 5 | < 5 | c1cc(OC2CCNCC2)c2nc(Nc3ccc(N4CCOCC4)cc3)ncc2c1 [Compound 546, N-(4-morpholinophenyl)-8-(piperidin-4-yloxy)quinazolin-2-amine] |
| < 5 | < 5 | CN1CCN(c2ccc(Nc3ncc4cccc(OC5CCNCC5)c4n3)cc2)CC1 [Compound 548, N-(4-(4-methylpiperazin-1-yl)phenyl)-8-(piperidin-4-yloxy)quinazolin-2-amine] |
| < 5 | < 5 | CNS(=O)(=O)c1ccc(Nc2ncc3ccc(O)c(C4CCN(C(C)C)CC4)c3n2)cc1 [Compound 549] |
| < 5 | 5 to 10 | c1cc(Nc2ncc3cccc(OC4CCNCC4)c3n2)cc(N2CCCC2)c1 [Compound 550, 8-(piperidin-4-yloxy)-N-(3-(pyrrolidin-1-yl)phenyl)quinazolin-2-amine] |
| < 5 | 5 to 10 | CC(C)N1CCC(Oc2cccc3cnc(Nc4cccc(N5CCCC5)c4)nc23)CC1 [Compound 551, 8-(1-isopropylpiperidin-4-yloxy)-N-(3-(pyrrolidin-1-yl)phenyl)quinazolin-2-amine] |
| < 5 | < 5 | CC(C)N1CCC(Oc2cc(-c3nccs3)cc3cnc(Nc4ccc(N5CCOCC5)cc4)nc23)CC1 [Compound 553, 8-(1-isopropylpiperidin-4-yloxy)-N-(4-morpholinophenyl)-6-(thiazol-2-yl)quinazolin-2-amine] |
| < 5 | < 5 | COc1cc(Nc2ncc3ccc(OC4CCN(C)CC4)cc3n2)cc(OC)c1 [Compound 566, N-(3,5-dimethoxyphenyl)-7-(1-methylpiperidin-4-yloxy)quinazolin-2-amine] |
| < 5 | < 5 | Fc1cccc(Nc2ncc3ccc(OC4CCNCC4)cc3n2)c1 [Compound 567, N-(3-fluorophenyl)-7-(piperidin-4-yloxy)quinazolin-2-amine] |
| < 5 | < 5 | Fc1cc(F)cc(Nc2ncc3ccc(OC4CCNCC4)cc3n2)c1 [Compound 568, N-(3,5-difluorophenyl)-7-(piperidin-4-yloxy)quinazolin-2-amine] |
| < 5 | < 5 | FC(F)(F)c1cccc(Nc2ncc3ccc(OC4CCNCC4)cc3n2)c1 [Compound 569, 7-(piperidin-4-yloxy)-N-(3-(trifluoromethyl)phenyl)quinazolin-2-amine] |
